From ChEMBL document CHEMBL4680318, “(S)-Erypoegin K, an isoflavone isolated from Erythrina poeppigiana, is a novel inhibitor of topoisomerase IIα: Induction of G2 phase arrest in human gastric cancer cells” (Bioorg Med Chem, 2021)
Activity calls are given as the source filed them. No cut-off for these calls is given here.

How the values were obtained:
GCIY = assay: Antitumor activity against human GCIY cells xenografted in KSN/Slc nude mouse assessed as reduction in tumor size at 40 mg/kg, ip administered twice a week for 4 weeks starting from day 4 post inoculation by vernier caliper method; assay type: functional, organism-based
[1] = Toxicity in KSN/Slc nude mouse xenografted with human GCIY cells assessed as effect on body weight at 40 mg/kg, ip administered twice a week for 4 weeks starting from day 4 post inoculation; assay type: organism-based; conditions: in vivo, 672 h
[2] = Growth inhibition of human HBC4 cells measured after 48 hrs by sulforhodamine B assay; assay type: functional
[3] = Growth inhibition of human BSY1 cells measured after 48 hrs by sulforhodamine B assay; assay type: functional; conditions: BSY-1
[4] = Growth inhibition of human HBC5 cells measured after 48 hrs by sulforhodamine B assay; assay type: functional
MCF7 = assay: Growth inhibition of human MCF7 cells measured after 48 hrs by sulforhodamine B assay; assay type: functional
MDA-MB-231 = assay: Growth inhibition of human MDA-MB-231 cells measured after 48 hrs by sulforhodamine B assay; assay type: functional
U-251 = assay: Growth inhibition of human U-251 cells measured after 48 hrs by sulforhodamine B assay; assay type: functional
SF-268 = assay: Growth inhibition of human SF-268 cells measured after 48 hrs by sulforhodamine B assay; assay type: functional
SF-295 = assay: Growth inhibition of human SF-295 cells measured after 48 hrs by sulforhodamine B assay; assay type: functional
SF-539 = assay: Growth inhibition of human SF-539 cells measured after 48 hrs by sulforhodamine B assay; assay type: functional
SNB-75 = assay: Growth inhibition of human SNB-75 cells measured after 48 hrs by sulforhodamine B assay; assay type: functional
SNB-78 = assay: Growth inhibition of human SNB-78 cells measured after 48 hrs by sulforhodamine B assay; assay type: functional
HCC 2998 = assay: Growth inhibition of human HCC 2998 cells measured after 48 hrs by sulforhodamine B assay; assay type: functional
KM12 = assay: Growth inhibition of human KM12 cells measured after 48 hrs by sulforhodamine B assay; assay type: functional
HT-29 = assay: Growth inhibition of human HT-29 cells measured after 48 hrs by sulforhodamine B assay; assay type: functional
HCT-15 = assay: Growth inhibition of human HCT-15 cells measured after 48 hrs by sulforhodamine B assay; assay type: functional
HCT-116 = assay: Growth inhibition of human HCT-116 cells measured after 48 hrs by sulforhodamine B assay; assay type: functional
NCI-H23 = assay: Growth inhibition of human NCI-H23 cells measured after 48 hrs by sulforhodamine B assay; assay type: functional
NCI-H226 = assay: Growth inhibition of human NCI-H226 cells measured after 48 hrs by sulforhodamine B assay; assay type: functional
NCI-H522 = assay: Growth inhibition of human NCI-H522 cells measured after 48 hrs by sulforhodamine B assay; assay type: functional
NCI-H460 = assay: Growth inhibition of human NCI-H460 cells measured after 48 hrs by sulforhodamine B assay; assay type: functional
A549 = assay: Growth inhibition of human A549 cells measured after 48 hrs by sulforhodamine B assay; assay type: functional
DMS-273 = assay: Growth inhibition of human DMS-273 cells measured after 48 hrs by sulforhodamine B assay; assay type: functional
DMS-114 = assay: Growth inhibition of human DMS-114 cells measured after 48 hrs by sulforhodamine B assay; assay type: functional
LOX IMVI = assay: Growth inhibition of human LOX IMVI cells measured after 48 hrs by sulforhodamine B assay; assay type: functional
OVCAR-3 = assay: Growth inhibition of human OVCAR-3 cells measured after 48 hrs by sulforhodamine B assay; assay type: functional
OVCAR-4 = assay: Growth inhibition of human OVCAR-4 cells measured after 48 hrs by sulforhodamine B assay; assay type: functional
OVCAR-5 = assay: Growth inhibition of human OVCAR-5 cells measured after 48 hrs by sulforhodamine B assay; assay type: functional
OVCAR-8 = assay: Growth inhibition of human OVCAR-8 cells measured after 48 hrs by sulforhodamine B assay; assay type: functional
SK-OV-3 = assay: Growth inhibition of human SK-OV-3 cells measured after 48 hrs by sulforhodamine B assay; assay type: functional
RXF 631 = assay: Growth inhibition of human RXF 631 cells measured after 48 hrs by sulforhodamine B assay; assay type: functional
ACHN = assay: Growth inhibition of human ACHN cells measured after 48 hrs by sulforhodamine B assay; assay type: functional
St-4 = assay: Growth inhibition of human St-4 cells measured after 48 hrs by sulforhodamine B assay; assay type: functional
MKN-1 = assay: Growth inhibition of human MKN-1 cells measured after 48 hrs by sulforhodamine B assay; assay type: functional
MKN-7 = assay: Growth inhibition of human MKN-7 cells measured after 48 hrs by sulforhodamine B assay; assay type: functional
MKN-28 = assay: Growth inhibition of human MKN-28 cells measured after 48 hrs by sulforhodamine B assay; assay type: functional
MKN-45 = assay: Growth inhibition of human MKN-45 cells measured after 48 hrs by sulforhodamine B assay; assay type: functional
MKN-74 = assay: Growth inhibition of human MKN-74 cells measured after 48 hrs by sulforhodamine B assay; assay type: functional
DU-145 = assay: Growth inhibition of human DU-145 cells measured after 48 hrs by sulforhodamine B assay; assay type: functional
PC-3 = assay: Growth inhibition of human PC-3 cells measured after 48 hrs by sulforhodamine B assay; assay type: functional
[5] = biological target: DNA topoisomerase 2-alpha (Homo sapiens) (UniProt P11388); assay: Inhibition of human DNA topoisomerase 2alpha assessed as stabilization of DNA cleavage complex at 50 to 200 uM using supercoiled pSL1180 plasmid DNA as substrate measured after 30 mins by ethidium bromide staining-based UV imaging analysis; conditions: dose 50-200 µM
DNA topoisomerase 2-alpha (Homo sapiens), sequence (P11388 whole entry): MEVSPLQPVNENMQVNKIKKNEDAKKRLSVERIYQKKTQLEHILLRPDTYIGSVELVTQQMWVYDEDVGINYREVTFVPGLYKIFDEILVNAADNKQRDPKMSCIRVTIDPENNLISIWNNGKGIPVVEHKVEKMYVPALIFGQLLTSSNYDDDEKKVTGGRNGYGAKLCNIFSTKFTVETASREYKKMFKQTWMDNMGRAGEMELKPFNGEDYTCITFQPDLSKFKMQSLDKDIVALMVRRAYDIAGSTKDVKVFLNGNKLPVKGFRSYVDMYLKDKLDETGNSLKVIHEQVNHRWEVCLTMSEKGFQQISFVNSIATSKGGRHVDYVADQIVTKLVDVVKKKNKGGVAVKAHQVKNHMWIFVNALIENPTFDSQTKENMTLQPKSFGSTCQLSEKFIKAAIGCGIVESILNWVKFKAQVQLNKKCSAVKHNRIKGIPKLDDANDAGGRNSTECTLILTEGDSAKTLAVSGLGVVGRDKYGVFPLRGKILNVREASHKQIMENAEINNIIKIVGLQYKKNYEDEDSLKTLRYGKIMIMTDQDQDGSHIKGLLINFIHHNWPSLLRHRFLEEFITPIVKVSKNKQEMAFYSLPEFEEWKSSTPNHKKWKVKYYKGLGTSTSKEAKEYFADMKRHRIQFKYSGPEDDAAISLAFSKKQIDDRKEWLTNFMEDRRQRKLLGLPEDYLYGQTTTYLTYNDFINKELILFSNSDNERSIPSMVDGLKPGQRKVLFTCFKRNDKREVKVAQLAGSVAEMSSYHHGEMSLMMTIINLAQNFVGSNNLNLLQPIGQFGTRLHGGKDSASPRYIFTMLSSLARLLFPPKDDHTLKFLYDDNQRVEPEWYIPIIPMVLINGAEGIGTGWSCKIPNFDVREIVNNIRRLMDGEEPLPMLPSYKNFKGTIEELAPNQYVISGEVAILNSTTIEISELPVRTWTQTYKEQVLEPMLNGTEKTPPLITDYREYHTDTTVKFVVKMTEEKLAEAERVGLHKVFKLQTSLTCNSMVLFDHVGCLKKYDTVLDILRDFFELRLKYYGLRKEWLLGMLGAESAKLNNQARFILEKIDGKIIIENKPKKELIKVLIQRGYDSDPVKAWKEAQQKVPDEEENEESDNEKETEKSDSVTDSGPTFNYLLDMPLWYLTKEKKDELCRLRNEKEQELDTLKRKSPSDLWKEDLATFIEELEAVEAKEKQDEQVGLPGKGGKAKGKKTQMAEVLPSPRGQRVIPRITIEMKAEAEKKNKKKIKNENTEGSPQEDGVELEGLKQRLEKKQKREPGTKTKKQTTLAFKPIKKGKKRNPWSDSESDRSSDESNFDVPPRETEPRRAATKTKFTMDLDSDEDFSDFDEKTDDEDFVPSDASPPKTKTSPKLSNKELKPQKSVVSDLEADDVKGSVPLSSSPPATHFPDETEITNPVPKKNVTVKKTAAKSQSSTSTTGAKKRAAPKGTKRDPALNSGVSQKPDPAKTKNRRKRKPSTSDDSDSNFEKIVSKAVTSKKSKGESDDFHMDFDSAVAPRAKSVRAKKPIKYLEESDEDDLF

In the case of `O=c1[nH]cc(F)c(=O)[nH]1` [FLUOROURACIL], the Activity (GCIY) is reported as “Active” and the Activity [1] is reported as “Non-Toxic”.
Work on `O=c1c(-c2ccc(O)cc2)coc2cc(O)cc(O)c12` [GENISTEIN] yielded a GI50 [2] of 43.7 µM, a GI50 [3] of 43.7 µM and a GI50 [4] of 26.9 µM. It also gave a GI50 (MCF7) of 42.7 µM, a GI50 (MDA-MB-231) of 37.2 µM and a GI50 (U-251) of 42.7 µM. The GI50 (SF-268) was 30.2 µM, the GI50 (SF-295) was 28.8 µM and the GI50 (SF-539) was 26.3 µM. For the same compound, the GI50 (SNB-75) was 15.8 µM, the GI50 (SNB-78) was 38.9 µM and the GI50 (HCC 2998) was 45.7 µM. For the same compound, the GI50 (KM12) was 50.1 µM, the GI50 (HT-29) was 53.7 µM and the GI50 (HCT-15) was 30.2 µM. The GI50 (HCT-116) was 25.1 µM, the GI50 (NCI-H23) was 36.3 µM and the GI50 (NCI-H226) was 27.5 µM. For the same compound, the GI50 (NCI-H522) was 17.8 µM, the GI50 (NCI-H460) was 26.3 µM and the GI50 (A549) was 26.3 µM. It also gave a GI50 (DMS-273) of 21.9 µM, a GI50 (DMS-114) of 49 µM and a GI50 (LOX IMVI) of 18.2 µM. It also gave a GI50 (OVCAR-3) of 31.6 µM, a GI50 (OVCAR-4) of 43.7 µM and a GI50 (OVCAR-5) of 50.1 µM. The GI50 (OVCAR-8) was 35.5 µM, the GI50 (SK-OV-3) was 89.1 µM and the GI50 (RXF 631) was 40.7 µM. The GI50 (ACHN) was 19.5 µM, the GI50 (St-4) was 46.8 µM and the GI50 (MKN-1) was 25.1 µM. For the same compound, the GI50 (MKN-7) was 30.2 µM, the GI50 (MKN-28) was 39.8 µM and the GI50 (MKN-45) was 32.4 µM. The GI50 (MKN-74) was 36.3 µM.
Work on `CC(C)(O)[C@H]1Cc2c(cc(O)c3c(=O)c(-c4ccc(O)cc4)coc23)O1` yielded a GI50 [2] greater than 100 µM, a GI50 [3] greater than 100 µM and a GI50 [4] greater than 100 µM. It also gave a GI50 (MCF7) of 89.1 µM, a GI50 (MDA-MB-231) of 45.7 µM and a GI50 (U-251) greater than 100 µM. The GI50 (SF-268) was greater than 100 µM, the GI50 (SF-295) was 52.5 µM and the GI50 (SF-539) was 53.7 µM. For the same compound, the GI50 (SNB-75) was 16.6 µM, the GI50 (SNB-78) was greater than 100 µM and the GI50 (HCC 2998) was greater than 100 µM. The GI50 (KM12) was greater than 100 µM, the GI50 (HT-29) was greater than 100 µM and the GI50 (HCT-15) was greater than 100 µM. It also gave a GI50 (HCT-116) greater than 100 µM, a GI50 (NCI-H23) greater than 100 µM and a GI50 (NCI-H226) greater than 100 µM. It also gave a GI50 (NCI-H522) of 47.9 µM, a GI50 (NCI-H460) greater than 100 µM and a GI50 (A549) greater than 100 µM. For the same compound, the GI50 (DMS-273) was greater than 100 µM, the GI50 (DMS-114) was greater than 100 µM and the GI50 (LOX IMVI) was greater than 100 µM. It also gave a GI50 (OVCAR-3) greater than 100 µM, a GI50 (OVCAR-4) greater than 100 µM and a GI50 (OVCAR-5) greater than 100 µM. For the same compound, the GI50 (OVCAR-8) was greater than 100 µM, the GI50 (SK-OV-3) was 26.9 µM and the GI50 (RXF 631) was 85.1 µM. The GI50 (ACHN) was greater than 100 µM, the GI50 (St-4) was greater than 100 µM and the GI50 (MKN-1) was greater than 100 µM. For the same compound, the GI50 (MKN-7) was greater than 100 µM, the GI50 (MKN-28) was greater than 100 µM and the GI50 (MKN-45) was greater than 100 µM. It also gave a GI50 (MKN-74) greater than 100 µM, a GI50 (DU-145) greater than 100 µM and a GI50 (PC-3) of 91.2 µM. For the same compound, the Activity (GCIY) was “inactive” and the Activity [1] was “Non-Toxic”.
With `COc1cc([C@@H]2c3cc4c(cc3[C@@H](O[C@@H]3O[C@@H]5CO[C@@H](C)O[C@H]5[C@H](O)[C@H]3O)[C@H]3COC(=O)[C@H]23)OCO4)cc(OC)c1O` [ETOPOSIDE] the GI50 [2] was 16.6 µM, the GI50 [3] was 5.37 µM and the GI50 [4] was 51.3 µM. It also gave a GI50 (MCF7) of 2.24 µM, a GI50 (MDA-MB-231) of 21.4 µM and a GI50 (U-251) of 2.34 µM. The GI50 (SF-268) was 5.37 µM, the GI50 (SF-295) was 2.75 µM and the GI50 (SF-539) was 1.86 µM. The GI50 (SNB-75) was 6.92 µM, the GI50 (SNB-78) was 44.7 µM and the GI50 (HCC 2998) was 5.62 µM. For the same compound, the GI50 (KM12) was 14.1 µM, the GI50 (HT-29) was 22.9 µM and the GI50 (HCT-15) was 16.2 µM. The GI50 (HCT-116) was 14.8 µM, the GI50 (NCI-H23) was 4.07 µM and the GI50 (NCI-H226) was 4.9 µM. The GI50 (NCI-H522) was 4.68 µM, the GI50 (NCI-H460) was 1.15 µM and the GI50 (A549) was 2 µM. For the same compound, the GI50 (DMS-273) was 1.74 µM, the GI50 (DMS-114) was 2.88 µM and the GI50 (LOX IMVI) was 3.47 µM. It also gave a GI50 (OVCAR-3) of 23.4 µM, a GI50 (OVCAR-4) of 38.9 µM and a GI50 (OVCAR-5) of 19.5 µM. It also gave a GI50 (OVCAR-8) of 6.76 µM, a GI50 (SK-OV-3) of 3.98 µM and a GI50 (RXF 631) of 12.3 µM. It also gave a GI50 (ACHN) of 2.09 µM, a GI50 (St-4) of 20.9 µM and a GI50 (MKN-1) of 2.14 µM. It also gave a GI50 (MKN-7) of 25.7 µM, a GI50 (MKN-28) of 21.4 µM and a GI50 (MKN-45) of 7.94 µM. For the same compound, the GI50 (MKN-74) was 49 µM, the GI50 (DU-145) was 2.82 µM and the GI50 (PC-3) was greater than 100 µM. For the same compound, the inhibition [5] was “Active”.
